Test results reported in patent US20090324737A1, “Antimicrobial And Sporicidal Composition” (priority 2002, published 2009).

Test system: Bacillus subtilis spores
Assay: Sporicidal activity against Bacillus subtilis spore suspension (cfu pour-plate count vs distilled water controls)
Format: cell-based
Conditions: spore suspension diluted 1:100 into composition
Protocol: Spore suspensions were prepared by streaking standard agar plates with Bacillus subtilis and then incubating the plates for 48-72 hours at 37° C. The resulting bacteria and their spores were scraped from the plates and suspended by agitation in a 50% ethanol-water solution for four hours in order to lyse the vegetative cells. The spores were collected by centrifugation, washed three times and then suspended in 50% ethanol-water, resulting in a spore titer of 10^9 spores/mL. […] After treatment, the spore suspensions were diluted in distilled water and duplicate aliquots from each dilution were pour-plated on tripticase soy agar. Total colony-forming units (cfu) were counted after incubation at 37° C. for 24 hours. Sporicidal activity was directly proportional to the reduction of cfu compared to the distilled water controls.
Test results from representative compositions are summarized in Table 1 and the associated graph of the data (FIG. 2). In addition, test data for exposure to 0.1% L-alanine in the absence of sporicidal agents is included.

Structure (SMILES): C[C@H](N)C(=O)O [L-alanine]
- Test results of Spore-inactivating Compositions vs. Exposure Time (cfu compared to distilled water controls) (exposure time 0.00 hrs): 100.0%
- Test results of Spore-inactivating Compositions vs. Exposure Time (cfu compared to distilled water controls) (exposure time 0.25 hrs): 106.0%
- Test results of Spore-inactivating Compositions vs. Exposure Time (cfu compared to distilled water controls) (exposure time 0.50 hrs): 111.0%
- Test results of Spore-inactivating Compositions vs. Exposure Time (cfu compared to distilled water controls) (exposure time 1.00 hrs): 113.0%
- Test results of Spore-inactivating Compositions vs. Exposure Time (cfu compared to distilled water controls) (exposure time 4.00 hrs): 116.0%
